According to US20260256789A1, “METHODS FOR TREATMENT OF CANCER” (Frontier Medicines Corporation, priority 2022, published 2026):

The molecules below were run against T1, KRAS G12C (GMPPNP-loaded) and cRAF Ras-binding domain (Homo sapiens, UniProt P01116, C118S/C51S/C80L/G12C) (assay: Inhibition of KRAS G12C and cRAF binding (AlphaScreen)). Settings: KRAS G12C preloaded with GTP analogue GMPPNP, 2 hours preincubation.
T1 construct: truncated version comprising amino acids 1-169
From the text: The ability of compounds of Formula (A), Formula (B) and Formula (C), and pharmaceutically acceptable salts and/or isotopologues thereof, to inhibit activity of the GTP-bound form of KRAS G12C can be tested using methods such as the in vitro assay described in Example 179 below. Example 179 describes determining, for various compounds, the half-maximal inhibition (IC50) of KRAS G12C loaded with GTP analogue GMPPNP from binding to cRaf, as the Ras-binding domain (RBD). Example 180 describes determining, for various compounds, the half-maximal inhibition (IC50) of KRAS G12C loaded with GTP analogue GMPPNP from binding to PI3Kα, as the Ras-binding domain (RBD). Example 181 describes testing compounds for the ability to inhibit cell viability in MCF10A G12C/A59G mutant, which abrogates GTPase activity, thus preventing hydrolysis of GTP to GDP.
The AlphaScreen technology was used to determine IC50s for compound inhibition of KRAS G12C (present as the Cys-light (C51S, C80L and C118S), truncated version comprising amino acids 1-169) and cRAF interaction. Compounds were diluted in 100% DMSO and each compound concentration was spotted at 200 nl/well onto low volume, white 384 well plates. The KRAS G12C contained a biotin-AviTag and the cRaf, as Ras-binding domain (amino acids 50-131, RBD), was GST-tagged. KRAS G12C was preloaded with the GTP analogue Guanosine 5′-[β,γ-imido]triphosphate (GMPPNP). The KRAS G12C was diluted in 25 mM Hepes, pH 7.4, 150 mM NaCl, 5 mM MgCl2, 0.01% TritonX-100 and 10 μM GMPPNP and added at 10 ul/well to compound-spotted plates resulting in a DMSO concentration of 2%. Plates were incubated for 2 hours. A mixture of RBD and the AlphaScreen streptavidin donor and glutathione acceptor beads diluted in 25 mM Hepes, pH 7.4, 150 mM NaCl, 5 mM MgCl2, 0.01% TritonX-100 and 2% DMSO was then added at 10 ul/well and incubated for 60-90 minutes before the samples were read for emission at 570 nm after excitation of the donor beads at 680 nm. All incubations were performed at room temperature. The final top compound concentration was 50 μM with 1:3 titrations for 10-point dose response curves. Final assay conditions were 0.5 nM KRAS G12C, 0.75 nM RBD and 5 μg/ml each of AlphaScreen donor and acceptor beads. IC50s were determined using nonlinear regression fit of [inhibitor] vs. response (4 parameters). […]

T1 sequence (P01116 1-169 isoform P01116-2 G12C/C51S/C80L/C118S): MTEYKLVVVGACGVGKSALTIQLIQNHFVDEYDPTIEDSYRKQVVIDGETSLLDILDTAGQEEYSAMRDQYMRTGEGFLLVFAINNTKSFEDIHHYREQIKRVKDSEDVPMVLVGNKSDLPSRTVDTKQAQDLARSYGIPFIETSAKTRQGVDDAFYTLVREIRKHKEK

Compound	IC50
Cc1cc(N)nc(-c2ncc3c(N(C)CC4CN(C(=O)/C=C/c5nc(C(C)(C)O)no5)C4)nc(OC[C@@]45CCCN4C[C@H](F)C5)nc3c2F)c1C(F)(F)F [Example 97]	10 to 100 nM
CN1CC[C@H]1/C=C/C(=O)N1CC[C@@H](N(C)c2nc(OC[C@@]34CCCN3C[C@H](F)C4)nc3c(F)c(-c4nc(N)cc5cccc(Cl)c45)ncc23)C1 (single isomer, unassigned) [Example 6]	< 10 nM
C=CC(=O)N1CC[C@@H](N(C)c2nc(OCC34CCCN3CCC4)nc3c2C[C@H](C)[C@@H](c2nc(N)cc(C)c2C(F)(F)F)C3)C1 (single isomer, unassigned) [Example 18]	100 to 500 nM
Cc1noc(/C=C/C(=O)N2CC[C@@H](N(C)c3nc(OC[C@@]45CCCN4C[C@H](F)C5)nc4c(F)c(-c5nc(N)cc(C)c5C)ncc34)C2)n1 [Example 52, (E)-1-((R)-3-((7-(6-amino-3,4-dimethylpyridin-2-yl)-8-fluoro-2-(((2R,7aS)-2-fluorotetrahydro-1H-pyrrolizin-7a(5H)-yl)methoxy)pyrido[4,3-d]pyrimidin-4-yl)(methyl)amino)pyrrolidin-1-yl)-3-(3-methyl-1,2,4-oxadiazol-5-yl)prop-2-en-1-one]	10 to 100 nM
Cc1noc(/C=C/C(=O)N2CC[C@@H](N(C)c3nc(OC[C@@]45CCCN4C[C@H](F)C5)nc4c3C[C@H](C)[C@@H](c3nc(N)cc(C)c3C(F)(F)F)C4)C2)n1 [Example 81, (E)-1-((R)-3-(((6S,7S)-7-(6-amino-4-methyl-3-(trifluoromethyl)pyridin-2-yl)-2-(((2R,7aS)-2-fluorotetrahydro-1H-pyrrolizin-7a(5H)-yl)methoxy)-6-methyl-5,6,7,8-tetrahydroquinazolin-4-yl)(methyl)amino)pyrrolidin-1-yl)-3-(3-methyl-1,2,4-oxadiazol-5-yl)prop-2-en-1-one]	100 to 500 nM
C=CC(=O)N1CC(CN(C)c2nc(OC[C@@]34CCCN3C[C@H](F)C4)nc3c2CC(C)C(c2nc(N)cc(C)c2C(F)(F)F)C3)C1 (stereo partly drawn) [Example 67, 1-(3-(((7-(6-amino-4-methyl-3-(trifluoromethyl)pyridin-2-yl)-2-(((2R,7aS)-2-fluorohexahydro-1H-pyrrolizin-7a-yl)methoxy)-6-methyl-5,6,7,8-tetrahydroquinazolin-4-yl)(methyl)amino)methyl)azetidin-1-yl)prop-2-en-1-one]	≥ 500 nM
Cc1cc(N)nc(-c2ncc3c(N(C)[C@@H]4C[C@@H](C)N(C#N)C4)nc(OC[C@@]45CCCN4C[C@H](F)C5)nc3c2F)c1C(F)(F)F (single isomer, unassigned) [Example 40]	10 to 100 nM
Cc1noc(/C=C/C(=O)N2CC[C@@H](N(C)c3nc(OC[C@@]45CCCN4C[C@H](F)C5)nc4c3C[C@@H](C)[C@H](c3nc(N)cc(C)c3C(F)(F)F)C4)C2)n1 (single isomer, unassigned) [Example 57]	< 10 nM
C=CC(=O)N1CC[C@@H](N(C)c2nc(OCC34CCCN3CCC4)nc3c(F)c(-c4nc(N)cc(C)c4C(F)(F)F)ncc23)C1 [Example 79, (R)-1-(3-((7-(6-amino-4-methyl-3-(trifluoromethyl)pyridin-2-yl)-8-fluoro-2-((tetrahydro-1H-pyrrolizin-7a(5H)-yl)methoxy)pyrido[4,3-d]pyrimidin-4-yl)(methyl)amino)pyrrolidin-1-yl)prop-2-en-1-one]	10 to 100 nM
CC(C)c1noc(/C=C/C(=O)N2CC[C@@H](N(C)c3nc(OC[C@@]45CCCN4C[C@H](F)C5)nc4c(F)c(-c5nc(N)cc6cccc(Cl)c56)ncc34)C2)n1 [Example 60, (E)-1-((R)-3-((7-(3-amino-8-chloroisoquinolin-1-yl)-8-fluoro-2-(((2R,7aS)-2-fluorohexahydro-1H-pyrrolizin-7a-yl)methoxy)pyrido[4,3-d]pyrimidin-4-yl)(methyl)amino)pyrrolidin-1-yl)-3-(3-isopropyl-1,2,4-oxadiazol-5-yl)prop-2-en-1-one]	< 10 nM
C=CC(=O)N1CC[C@@H](N(C)c2nc(OCC34CCCN3CCC4)nc3c2CC(C)C(c2nc(N)cc(C)c2C(F)(F)F)C3)C1 (stereo partly shown) [Example 98]	100 to 500 nM
C=CC(=O)N1CC(CN(C)c2nc(OC[C@@]34CCCN3C[C@H](F)C4)nc3c(F)c(-c4nc(N)cc5cccc(Cl)c45)ncc23)C1 [Example 73, 1-(3-(((7-(3-amino-8-chloroisoquinolin-1-yl)-8-fluoro-2-(((2R,7aS)-2-fluorohexahydro-1H-pyrrolizin-7a-yl)methoxy)pyrido[4,3-d]pyrimidin-4-yl)(methyl)amino)methyl)azetidin-1-yl)prop-2-en-1-one]	10 to 100 nM
CN1CC[C@@H]1/C=C/C(=O)N1CC[C@@H](N(C)c2nc(OC[C@@]34CCCN3C[C@H](F)C4)nc3c(F)c(-c4nc(N)cc5cccc(Cl)c45)ncc23)C1 (single isomer, unassigned) [Example 3]	10 to 100 nM

The next lines start with the values.

IC50	Compound
10 to 100 nM	Cc1nsc(/C=C/C(=O)N2CC[C@@H](N(C)c3nc(OC[C@@]45CCCN4C[C@H](F)C5)nc4c(F)c(-c5nc(N)cc(C)c5C(F)(F)F)ncc34)C2)n1 [Example 164]
≥ 500 nM	C=CC(=O)N1CC[C@@H](N(C)c2nc(OC[C@@]34CCCN3C[C@H](F)C4)nc3c(F)c(-c4cccc5cn[nH]c45)ncc23)C1 [Example 264]
10 to 100 nM	CC(C)c1noc(/C=C/C(=O)N2CC[C@@H](N(C)c3nc(OC[C@@]45CCCN4C[C@H](F)C5)nc4c(F)c(-c5nc(N)ccc5OC(F)F)ncc34)C2)n1 [Example 214]
≥ 500 nM	C=CC(=O)N1CC[C@H](O)[C@@H](N(C)c2nc(OC[C@@]34CCCN3C[C@H](F)C4)nc3c(F)c(-c4cccc(Cl)c4C(F)(F)F)ncc23)C1 [Example 205]
< 10 nM	CN(C)CC#CC(=O)N1CC[C@@H](N(C)c2nc(OC[C@@]34CCCN3C[C@H](F)C4)nc3c(F)c(-c4nc(N)cc5cccc(F)c45)ncc23)C1 [Example 106]
≥ 500 nM	C=CC(=O)N1CC[C@@H](N(C)C2=c3cnc(-c4c[nH]nc4Cl)c(F)c3=NC(OC[C@@]34CCCN3C[C@H](F)C4)N2)C1 (stereo partly shown) [Example 225]
10 to 100 nM	CN(c1nc(OC[C@@]23CCCN2C[C@H](F)C3)nc2c(F)c(-c3cccc(Cl)c3C3CC3)ncc12)[C@@H]1CCN(C(=O)/C=C/CN2C[C@@H]3C[C@H]2CO3)C1 [Example 231]
100 to 500 nM	CN(c1nc(OC[C@@]23CCCN2C[C@H](F)C3)nc2c(F)c(-c3cccc(Cl)c3C3CC3)ncc12)[C@@H]1CCN(C(=O)C#CCN2CCOCC2)C1 [Example 223]
≥ 500 nM	C=CC(=O)N1CC[C@@H](N(C)c2nc(OC[C@@]34CCCN3C[C@H](F)C4)nc3c(F)c(-c4cc(F)cnc4C4CC4)ncc23)C1 [Example 259]
< 10 nM	Cc1noc(/C=C/C(=O)N2CC[C@@H](N(C)c3nc(OC[C@@]45CCCN4C[C@H](F)C5)nc4c3CC(C)C(c3nc(N)cc(C)c3C(F)(F)F)C4)C2)n1 (stereo partly shown) [Example 115]
100 to 500 nM	Cc1nccc(/C=C/C(=O)N2CC[C@@H](N(C)c3nc(OC[C@@]45CCCN4C[C@H](F)C5)nc4c(F)c(-c5cccc(Cl)c5C5CC5)ncc34)C2)n1 [Example 221]
≥ 500 nM	C=CC(=O)N1CC[C@@H](N(C)c2nc(OC[C@@]34CCCN3C[C@H](F)C4)nc3c(F)c(-c4cc(C(F)F)ccc4Cl)ncc23)C1 [Example 251]
≥ 500 nM	C=CC(=O)N1CC(CN(C)c2nc(OCC34CCCN3CCC4)nc3c2CC(C)C(c2nc(N)cc(C)c2C(F)(F)F)C3)C1 (stereo not shown) [Example 207]
≥ 500 nM	Cc1cc(N)nc([C@H]2Cc3nc(OC[C@@]45CCCN4C[C@H](F)C5)nc(N(C)CC4CN(C(=O)/C=C/c5nc(C(C)(C)O)no5)C4)c3C[C@@H]2C)c1C(F)(F)F (single isomer, unassigned) [Example 155]
100 to 500 nM	C=CC(=O)N1CC[C@@H](N(C)c2nc(OC[C@@]34CCCN3C[C@H](F)C4)nc3c(F)c(-c4nc(N)cc(C)c4C)ncc23)C1 [Example 171]
≥ 500 nM	C=CC(=O)N1CC[C@@H](N(C)c2nc(OC[C@@]34CCCN3C[C@H](F)C4)nc3c(F)c(-c4cccc(OC)c4C4CC4)ncc23)C1 [Example 189]
100 to 500 nM	CN(c1nc(OC[C@@]23CCCN2C[C@H](F)C3)nc2c(F)c(-c3nc(N)cc4cccc(Cl)c34)ncc12)[C@@H]1CCN(C(=O)/C=C/CN2CCOCC2)C1 [Example 116]
≥ 500 nM	C=CC(=O)N1CC[C@@H](N(C)c2nc(OC[C@@]34CCCN3C[C@H](F)C4)nc3c(F)c(-c4ccccc4C(F)F)ncc23)C1 [Example 181]
